According to patent US20230024302A1, “2,3,5-TRISUBSTITUTED PYRAZOLO[1,5-A]PYRIMIDINE COMPOUNDS” (Arcus Biosciences, Inc., priority 2019, published 2023):
Like-named read-outs stand apart in the source and are kept apart here.

Tests used:
[1] = target: T1, PI3Kγ (p120γ) (Homo sapiens, UniProt P48736); assay: Inhibition of PI3K kinase activity (ADP Glo), PI3Kγ; details: read-out: biochemical potency (PI3Kγ IC50)
T1 construct: purchased Promega V1761
In short: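 Recombinant p120γ (8 nM, 2× stock) was preincubated with compound for 1 h at rt in HEPES pH 7.4, NaCl, MgCl2 and 0.05% BSA. Reaction was started with PIP2 (0.1 mg/ml, 2×) and ATP (50 μM, 2×) and ran 60 min at rt. ADP formed was read by ADP-Glo luminescence, and IC50 came from a 4-parameter fit.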

[2] = target: T2, PI3Kγ (Homo sapiens, UniProt P48736); assay: PI3Kγ cellular assay in THP-1 cells (AKT pS473 AlphaLISA); assay type: cell-based
T2 construct: host or cells: THP-1
T2 sequence (P48736 whole entry): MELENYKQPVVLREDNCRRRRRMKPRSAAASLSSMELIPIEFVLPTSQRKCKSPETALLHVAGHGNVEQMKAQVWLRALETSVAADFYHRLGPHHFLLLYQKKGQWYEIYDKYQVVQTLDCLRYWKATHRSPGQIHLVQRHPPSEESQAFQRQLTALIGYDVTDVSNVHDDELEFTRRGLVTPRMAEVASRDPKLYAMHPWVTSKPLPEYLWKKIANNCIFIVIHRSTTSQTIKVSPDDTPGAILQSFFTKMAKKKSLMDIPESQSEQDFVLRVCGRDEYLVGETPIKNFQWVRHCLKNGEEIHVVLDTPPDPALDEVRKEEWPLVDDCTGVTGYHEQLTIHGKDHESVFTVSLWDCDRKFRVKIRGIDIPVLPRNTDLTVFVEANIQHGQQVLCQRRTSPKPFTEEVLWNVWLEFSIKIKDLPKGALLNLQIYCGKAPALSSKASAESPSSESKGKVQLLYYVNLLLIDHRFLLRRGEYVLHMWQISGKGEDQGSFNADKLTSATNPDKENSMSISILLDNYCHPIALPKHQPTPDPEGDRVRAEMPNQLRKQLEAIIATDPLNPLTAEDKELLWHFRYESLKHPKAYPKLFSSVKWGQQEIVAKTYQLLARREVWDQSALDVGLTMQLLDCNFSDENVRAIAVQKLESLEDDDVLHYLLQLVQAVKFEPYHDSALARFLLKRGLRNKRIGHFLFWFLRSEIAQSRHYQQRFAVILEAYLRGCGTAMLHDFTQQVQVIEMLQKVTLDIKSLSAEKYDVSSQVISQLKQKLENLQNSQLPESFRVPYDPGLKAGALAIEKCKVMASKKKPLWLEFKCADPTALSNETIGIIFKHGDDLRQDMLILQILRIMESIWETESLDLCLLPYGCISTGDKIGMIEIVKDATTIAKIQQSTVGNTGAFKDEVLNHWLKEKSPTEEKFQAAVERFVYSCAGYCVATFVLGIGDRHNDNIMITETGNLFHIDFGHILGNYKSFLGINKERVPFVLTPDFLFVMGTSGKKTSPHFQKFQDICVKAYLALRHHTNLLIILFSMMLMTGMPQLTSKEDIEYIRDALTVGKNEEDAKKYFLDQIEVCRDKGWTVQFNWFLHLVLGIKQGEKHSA
In short: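 Serum-starved THP-1 cells (1.8×10^5/well, serum-free DMEM) treated with compounds from 4 nM to 30 μM in 2% DMSO, then stimulated and lysed.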

[3] = Table 6, rhMCP-1 stimulated AKT pS473, read-out: cellular potency (PI3Kγ IC50)
[4] = Table 2, rhMCP-1 stimulated AKT pS473, read-out: cellular potency (PI3Kγ IC50)
[5] = Table 1, rhMCP-1 stimulated AKT pS473, read-out: cellular potency (PI3Kγ IC50)
[6] = Table 3, rhMCP-1 stimulated AKT pS473, read-out: cellular potency (PI3Kγ IC50)
[7] = AKT pS473, read-out: cellular potency (PI3Kγ IC50)

T1 sequence (P48736 whole entry): as above

In the case of `C[C@@H](C1CC1)N1Cc2cc(-c3ccn4nc(N)c(C(=O)N[C@H]5CCC[C@@H](N)C5)c4n3)cc(OC(F)(F)F)c2C1=O` [Example 426], the IC50 ([1]; Table 6, p120γ) is reported as < 100 nM and the IC50 [2, 3] is reported as 100 to 1000 nM.
With `Cc1cc(-c2ccn3nc(N)c(C(=O)N[C@@H]4CCOC4)c3n2)cc2c1C(=O)N([C@@H](C)C1CC1)C2` [Example 176] the IC50 ([1]; Table 2, p120γ) was < 100 nM and the IC50 [2, 4] was 100 to 1000 nM.
For `Cc1cc(-c2ccn3nc(N)c(C(=O)N[C@H]4CCCNC4)c3n2)cc2c1C(=O)N([C@@H](C)C1CC1)C2` [Example 243], the IC50 ([1]; Table 2, p120γ) was < 100 nM and the IC50 [2, 4] was 100 to 1000 nM.
In the case of `Cc1cc(-c2ccn3nc(N)c(C(=O)N[C@H]4CCOC4)c3n2)cc2c1C(=O)N([C@@H](C)C1CC1)C2` [Example 177], the IC50 ([1]; Table 2, p120γ) is reported as < 100 nM and the IC50 [2, 4] is reported as 100 to 1000 nM.
With `Cc1cc(-c2ccn3nc(N)c(C(=O)NC[C@@H]4CCC(=O)N4)c3n2)cc2c1C(=O)N([C@@H](C)C1CC1)C2` [Example 271] the IC50 ([1]; Table 2, p120γ) was < 100 nM and the IC50 [2, 4] was 100 to 1000 nM.
In the case of `C[C@@H](C1CC1)N1Cc2cc(-c3ccn4nc(N)c(C(=O)NC5CC5)c4n3)cc(S(C)(=O)=O)c2C1=O` [Example 132, 2-Amino-N-cyclopropyl-5-{2-[(1S)-1-cyclopropylethyl]-7-methanesulfonyl-1-oxo-2,3-dihydro-1H-isoindol-5-yl}pyrazolo[1,5-a]pyrimidine-3-carboxamide], the IC50 ([1]; Table 1, p120γ) is reported as < 100 nM and the IC50 [2, 5] is reported as < 100 nM.
`COC[C@@H](C)NC(=O)c1c(N)nn2ccc(-c3cc4c(c(C(F)(F)F)c3)C(=O)N([C@@H](C)C3CC3)C4)nc12` [Example 339] was tested, and the IC50 ([1]; Table 3, p120γ) was < 100 nM and the IC50 [2, 6] was 100 to 1000 nM.
In the case of `C[C@H](O)CCNC(=O)c1c(N)nn2ccc(-c3cc4c(c(C(F)(F)F)c3)C(=O)N([C@@H](C)C3CC3)C4)nc12` [Example 346], the IC50 ([1]; Table 3, p120γ) is reported as < 100 nM and the IC50 [2, 6] is reported as 100 to 1000 nM.
`Cc1cc(-c2ccn3nc(N)c(C(=O)NC4(C(C)O)CC4)c3n2)cc2c1C(=O)N([C@@H](C)C1CC1)C2` (stereo partly shown) [Example 253] was tested, and the IC50 ([1]; Table 2, p120γ) was < 100 nM and the IC50 [2, 4] was 100 to 1000 nM.
With `C[C@@H](C1CC1)N1Cc2cc(-c3ccn4nc(N)c(C(=O)Nc5ccccn5)c4n3)cc(NS(C)(=O)=O)c2C1=O` [Example 396] the IC50 [1] was < 100 nM and the IC50 [2, 7] was 100 to 1000 nM.
For `C[C@@H](C1CC1)N1Cc2cc(-c3ccn4nc(N)c(C(=O)N[C@H]5CCNC5=O)c4n3)cc(O[C@@H]3CCOC3)c2C1=O` [Example 441], the IC50 ([1]; Table 6, p120γ) was < 100 nM and the IC50 [2, 3] was > 1000 nM.
With `C[C@@H](C1CC1)N1Cc2cc(-c3ccn4nc(N)c(C(=O)NC5CC5)c4n3)cc(Cl)c2C1=O` [Example 162, 2-Amino-5-{7-chloro-2-[(1S)-1-cyclopropylethyl]-1-oxo-2,3-dihydro-1H-isoindol-5-yl}-N-cyclopropylpyrazolo[1,5-a]pyrimidine-3-carboxamide] the IC50 ([1]; Table 1, p120γ) was < 100 nM and the IC50 [2, 5] was < 100 nM.
With `Cc1cc(-c2ccn3nc(N)c(C(=O)N[C@@H](C)C4CCNCC4)c3n2)cc2c1C(=O)N([C@@H](C)C1CC1)C2` [Example 290] the IC50 ([1]; Table 2, p120γ) was 100 to 1000 nM and the IC50 [2, 4] was > 1000 nM.
For `CC[C@H](N1Cc2cc(-c3ccn4nc(N)c(C(=O)NC5CC5)c4n3)cc(Cl)c2C1=O)C(F)(F)F` [Example 449], the IC50 ([1]; Table 6, p120γ) was < 100 nM and the IC50 [2, 3] was 100 to 1000 nM.
For `Cc1cc(-c2ccn3nc(N)c(C(=O)NC4CC4)c3n2)cc2c1C(=O)N([C@H](CO)C1CC1)C2` [Example 310], the IC50 ([1]; Table 2, p120γ) was < 100 nM and the IC50 [2, 4] was 100 to 1000 nM.
`CCS(=O)(=O)Nc1cc(-c2ccn3nc(N)c(C(=O)Nc4cccnc4)c3n2)cc2c1C(=O)N([C@@H](C)C1CC1)C2` [Example 112, 2-Amino-5-{2-[(1S)-1-cyclopropylethyl]-7-ethanesulfonamido-1-oxo-2,3-dihydro-1H-isoindol-5-yl}-N-(pyridin-3-yl)pyrazolo[1,5-a]pyrimidine-3-carboxamide] was tested, and the IC50 ([1]; Table 1, p120γ) was < 100 nM and the IC50 [2, 5] was < 100 nM.
For `C[C@@H](C1CC1)N1Cc2cc(-c3ccn4nc(N)c(C(=O)N[C@H]5CC[C@@](O)(C(F)(F)F)CC5)c4n3)cc(C(F)(F)F)c2C1=O` [Example 345], the IC50 ([1]; Table 3, p120γ) was < 100 nM and the IC50 [2, 6] was 100 to 1000 nM.
With `C[C@@H](C1CC1)N1Cc2cc(-c3ccn4nc(N)c(C(=O)N[C@H]5CCC[C@@H](O)C5)c4n3)cc(C(F)(F)F)c2C1=O` [Example 63, 2-Amino-5-{2-[(1S)-1-cyclopropylethyl]-1-oxo-7-(trifluoromethyl)-2,3-dihydro-1H-isoindol-5-yl}-N-[(1S,3R)-3-hydroxycyclohexyl]pyrazolo[1,5-a]pyrimidine-3-carboxamide] the IC50 ([1]; Table 1, p120γ) was < 100 nM and the IC50 [2, 5] was < 100 nM.
In the case of `Cc1cc(-c2ccn3nc(N)c(C(=O)NC(C)CO)c3n2)cc2c1C(=O)N([C@H](C)c1cccnc1)C2` (stereo partly shown) [Example 332], the IC50 ([1]; Table 2, p120γ) is reported as < 100 nM and the IC50 [2, 4] is reported as > 1000 nM.
With `C[C@@H](C1CC1)N1Cc2cc(-c3ccn4nc(N)c(C(=O)Nc5cncc(F)c5)c4n3)cc(C(F)(F)F)c2C1=O` [Example 351] the IC50 ([1]; Table 3, p120γ) was < 100 nM and the IC50 [2, 6] was 100 to 1000 nM.
`C[C@@H](O)CCNC(=O)c1c(N)nn2ccc(-c3cc4c(c(C(F)(F)F)c3)C(=O)N([C@@H](C)C3CC3)C4)nc12` [Example 341] was tested, and the IC50 ([1]; Table 3, p120γ) was < 100 nM and the IC50 [2, 6] was 100 to 1000 nM.
With `CC[C@H](N1Cc2cc(-c3ccn4nc(N)c(C(=O)N[C@H]5C[C@H](C(C)(C)O)C5)c4n3)cc(NS(C)(=O)=O)c2C1=O)C(F)(F)F` [Example 126, 2-Amino-5-{7-methanesulfonamido-1-oxo-2-[(2S)-1,1,1-trifluorobutan-2-yl]-2,3-dihydro-1H-isoindol-5-yl}-N-[trans-3-(2-hydroxypropan-2-yl)cyclobutyl]pyrazolo[1,5-a]pyrimidine-3-carboxamide] the IC50 ([1]; Table 1, p120γ) was < 100 nM and the IC50 [2, 5] was < 100 nM.
`C[C@@H](C1CC1)N1Cc2cc3cc(c2C1=O)OCCOCCNC(=O)c1c(N)nn2ccc-3nc12` [Example 71, 6-[(S)-1-Cyclopropylethyl]-19-amino-10.13-dioxa-6.16.20.21.24-pentaazapentacyclo[16.5.2.12,9.04,8.021,25]hexacosa-1(24),2,4(8),9(26),18(25),19,22-heptaene-7,17-dione] was tested, and the IC50 ([1]; Table 1, p120γ) was < 100 nM and the IC50 [2, 5] was < 100 nM.
`Cc1cc(-c2ccn3nc(N)c(C(=O)NC4CC4)c3n2)cc2c1C(=O)N([C@H](C)c1ccncc1)C2` [Example 331] was tested, and the IC50 ([1]; Table 2, p120γ) was < 100 nM and the IC50 [2, 4] was > 1000 nM.
`COc1ccncc1NC(=O)c1c(N)nn2ccc(-c3cc4c(c(OC(F)(F)F)c3)C(=O)N([C@@H](C)C3CC3)C4)nc12` [Example 48, (S)-2-Amino-5-(2-(1-cyclopropylethyl)-1-oxo-7-(trifluoromethoxy)isoindolin-5-yl)-N-(4-methoxypyridin-3-yl)pyrazolo[1,5-a]pyrimidine-3-carboxamide] was tested, and the IC50 ([1]; Table 1, p120γ) was < 100 nM and the IC50 [2, 5] was < 100 nM.
`Cc1cc(-c2ccn3nc(N)c(C(=O)N4CCCC4CO)c3n2)cc2c1C(=O)N(C(C)C1CC1)C2` (stereo not shown) [Example 289] was tested, and the IC50 ([1]; Table 2, p120γ) was 100 to 1000 nM and the IC50 [2, 4] was > 1000 nM.
`Cc1cc(-c2ccn3nc(N)c(C(=O)N[C@H]4C[C@H](C(C)(C)O)C4)c3n2)cc2c1C(=O)N([C@@H](C)C1CC1)C2` [Example 14, 2-Amino-5-{2-[(1S)-1-cyclopropylethyl]-7-methyl-1-oxo-2,3-dihydro-1H-isoindol-5-yl}-N-[trans-3-(2-hydroxypropan-2-yl)cyclobutyl]pyrazolo[1,5-a]pyrimidine-3-carboxamide] was tested, and the IC50 ([1]; Table 1, p120γ) was < 100 nM and the IC50 [2, 5] was < 100 nM.
For `C[C@@H](C1CC1)N1Cc2cc(-c3ccn4nc(N)c(C(=O)NCCNS(C)(=O)=O)c4n3)cc(C(F)(F)F)c2C1=O` [Example 352], the IC50 ([1]; Table 3, p120γ) was < 100 nM and the IC50 [2, 6] was 100 to 1000 nM.
With `Cc1cc(-c2ccn3nc(N)c(C(=O)Nc4cnn(CCO)c4)c3n2)cc2c1C(=O)N([C@@H](C)C1CC1)C2` [Example 16, 2-Amino-5-{2-[(1S)-1-cyclopropylethyl]-7-methyl-1-oxo-2,3-dihydro-1H-isoindol-5-yl}-N-[1-(2-hydroxyethyl)-1H-pyrazol-4-yl]pyrazolo[1,5-a]pyrimidine-3-carboxamide] the IC50 ([1]; Table 1, p120γ) was < 100 nM and the IC50 [2, 5] was < 100 nM.
With `Cc1cc(-c2ccn3nc(N)c(C(=O)N[C@@H]4CNC(=O)C4)c3n2)cc2c1C(=O)N([C@@H](C)C1CC1)C2` [Example 202] the IC50 ([1]; Table 2, p120γ) was < 100 nM and the IC50 [2, 4] was 100 to 1000 nM.
`Cc1cc(-c2ccn3nc(N)c(C(=O)NC4COC4)c3n2)cc2c1C(=O)N(C(C)(C)CO)C2` [Example 315] was tested, and the IC50 ([1]; Table 2, p120γ) was < 100 nM and the IC50 [2, 4] was 100 to 1000 nM.
With `Cc1cc(-c2ccn3nc(N)c(C(=O)NC4COC4)c3n2)cc2c1C(=O)N([C@@H](C)C1CC1)C2` [Example 180] the IC50 ([1]; Table 2, p120γ) was < 100 nM and the IC50 [2, 4] was 100 to 1000 nM.
`C[C@@H](C1CC1)N1Cc2cc(-c3ccn4nc(N)c(C(=O)N[C@H]5CC[C@@](C)(O)CC5)c4n3)cc(S(C)(=N)=O)c2C1=O` (stereo partly shown) [Example 448] was tested, and the IC50 ([1]; Table 6, p120γ) was < 100 nM and the IC50 [2, 3] was 100 to 1000 nM.
In the case of `C[C@@H](C1CC1)N1Cc2cc(-c3ccn4nc(N)c(C(=O)N[C@H]5CC[C@@](C)(O)CC5)c4n3)cc(OC(F)F)c2C1=O` [Example 160, 2-Amino-5-{2-[(1S)-1-cyclopropylethyl]-7-(difluoromethoxy)-1-oxo-2,3-dihydro-1H-isoindol-5-yl}-N-[cis-4-hydroxy-4-methylcyclohexyl]pyrazolo[1,5-a]pyrimidine-3-carboxamide], the IC50 ([1]; Table 1, p120γ) is reported as < 100 nM and the IC50 [2, 5] is reported as < 100 nM.
With `C[C@@H](C1CC1)N1Cc2cc(-c3ccn4nc(N)c(C(=O)N[C@H]5CNC(=O)C5)c4n3)cc(NS(C)(=O)=O)c2C1=O` [Example 374] the IC50 [1] was < 100 nM and the IC50 [2, 7] was 100 to 1000 nM.
